Usually IC50 stands for the concentration that inhibits the measured activity by half.

For one assay, the target named is T1, Zcchc11 enzyme (Homo sapiens, UniProt Q5TAX3).
T1 construct: made in house; host or cells: HEK293 cells (Zcchc11); E. coli Rosetta II (LIN28A)
T1 sequence (Q5TAX3 212-1420): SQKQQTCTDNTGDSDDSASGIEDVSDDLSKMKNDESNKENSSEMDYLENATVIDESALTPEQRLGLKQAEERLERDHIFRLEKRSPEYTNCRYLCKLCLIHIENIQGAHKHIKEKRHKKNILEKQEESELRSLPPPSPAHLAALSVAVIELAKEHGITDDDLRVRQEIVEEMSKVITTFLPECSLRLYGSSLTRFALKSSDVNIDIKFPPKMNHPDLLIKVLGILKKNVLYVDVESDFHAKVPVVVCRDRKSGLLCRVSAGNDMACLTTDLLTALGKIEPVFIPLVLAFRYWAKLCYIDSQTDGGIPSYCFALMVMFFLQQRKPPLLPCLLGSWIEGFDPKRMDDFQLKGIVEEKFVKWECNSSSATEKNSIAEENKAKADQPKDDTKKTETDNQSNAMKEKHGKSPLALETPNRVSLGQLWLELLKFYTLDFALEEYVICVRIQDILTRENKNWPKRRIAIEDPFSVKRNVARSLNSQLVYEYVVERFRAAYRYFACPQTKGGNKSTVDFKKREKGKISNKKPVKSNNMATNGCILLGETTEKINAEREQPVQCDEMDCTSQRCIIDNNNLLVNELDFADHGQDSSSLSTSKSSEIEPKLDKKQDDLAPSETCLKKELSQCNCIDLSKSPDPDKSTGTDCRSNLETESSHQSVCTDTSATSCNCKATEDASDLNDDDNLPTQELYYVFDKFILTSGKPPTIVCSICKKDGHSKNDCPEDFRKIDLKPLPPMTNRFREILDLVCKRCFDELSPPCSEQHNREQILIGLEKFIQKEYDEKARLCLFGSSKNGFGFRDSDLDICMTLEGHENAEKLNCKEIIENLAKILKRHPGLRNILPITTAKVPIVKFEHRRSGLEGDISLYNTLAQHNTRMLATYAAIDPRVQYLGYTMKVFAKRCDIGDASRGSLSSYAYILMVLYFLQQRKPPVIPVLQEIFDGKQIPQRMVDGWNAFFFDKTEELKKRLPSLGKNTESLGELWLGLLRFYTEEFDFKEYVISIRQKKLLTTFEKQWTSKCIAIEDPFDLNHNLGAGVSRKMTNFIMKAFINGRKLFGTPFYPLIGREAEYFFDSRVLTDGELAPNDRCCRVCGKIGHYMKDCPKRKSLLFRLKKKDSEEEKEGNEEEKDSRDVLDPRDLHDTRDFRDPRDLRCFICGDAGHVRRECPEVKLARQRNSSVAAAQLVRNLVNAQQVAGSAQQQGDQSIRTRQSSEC
Put plainly: TUTase assay (Zcchc11 assay, Lin28a-dependent polyuridylation of pre-let-7). The class given is biochemical. The settings on record: LIN28A 10 nM, Zcchc11 0.2 nM, 5′-fluorescein pre-let-7 miRNA 2 nM, UTP 5 uM, room temperature, 30 minutes pre-incubation; read-out: Potency Lin28a-dep Z11 IC50. The method in brief:
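LIN28A (10 nM) in pH 7.3 HEPES/KCl/MgCl2/DTT buffer was mixed with serially diluted compound, then 0.2 nM truncated human Zcchc11 and 2 nM labeled pre-let-7 were added for 30 min at room temperature. UTP (5 uM) and quench probe (4 nM) then started the reaction. Linear early rates gave IC50 values.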
For `CC(=O)N1CC(n2cc(C(=O)O)c(=O)c3cc(Cl)c(N4CCC[C@@H]4COc4ncccc4C)cc32)C1` [Example 36, 1-(1-Acetylazetidin-3-yl)-6-chloro-7-[(2R)-2-{[(3-methylpyridin-2-yl)oxy]methyl}pyrrolidin-1-yl]-4-oxo-1,4-dihydroquinoline-3-carboxylic acid], the IC50 was 1000 to 10000 nM. For `COCCN1CC(C)(n2cc(C(=O)O)c(=O)c3cc(Cl)c(N4CCC[C@@H]4COc4ncccc4Cl)cc32)C1` [Example 37, 6-Chloro-7-[(2R)-2-{[(3-chloropyridin-2-yl)oxy]methyl}pyrrolidin-1-yl]-1-[1-(2-methoxyethyl)-3-methylazetidin-3-yl]-4-oxo-1,4-dihydroquinoline-3-carboxylic acid], the IC50 fell in the range of 1000 to 10000 nM.

Still in this assay, the particulars now being: Lin28a-dependent Zcchc11 (Z11) TUTase activity; read-out: Potency Lin28a-dep Z11 IC50.
Regarding `COc1ccnc(OC[C@H]2C[C@H]3C[C@H]3N2c2cc3c(cc2Cl)c(=O)c(C(=O)O)cn3-c2ccc(N(C)C)nc2)c1F` [Compound 196, 6-chloro-1-(6-(dimethyl-amino)pyridin-3-yl)-7-((1R,3R,5R)-3-(((3-fluoro-4-methoxy-pyridin-2-yl)oxy)methyl)-2-azabicyclo [3.1.0]hexan-2-yl)-4-oxo-1,4-dihydro-quinoline-3-carboxylic acid], the IC50 was ≤ 1000 nM. Take `O=C(O)c1cn(-c2ccc(O)cc2)c2cc(N3CCC[C@@H]3CNc3ncccc3Cl)c(F)cc2c1=O` [Compound 112, (R)-7-(2-(((3-chloropyridin-2-yl)amino)methyl)pyrrolidin-1-yl)-6-fluoro-1-(4-hydroxy-phenyl)-4-oxo-1,4-dihydro-quinoline-3-carboxylic acid]: the IC50 was ≤ 1000 nM. Regarding `O=C(O)c1cn(-c2cnccn2)c2cc(N3C(=O)CC[C@@H]3COc3ccccn3)c(Cl)cc2c1=O` [Compound 286, (R)-6-chloro-4-oxo-7-(2-oxo-5-((pyridin-2-yloxy)methyl)pyrrolidin-1-yl)-1-(pyrazin-2-yl)-1,4-dihydro-quinoline-3-carboxylic acid], the IC50 is > 50000 nM. With `Cc1cccnc1OC[C@H]1CCCN1c1cc2c(cc1Cl)c(=O)c(C(=O)O)cn2-c1ccc(O)cc1` [Compound 104, (R)-6-chloro-1-(4-hydroxy-phenyl)-7-(2-(((3-methyl-pyridin-2-yl)oxy)methyl)pyrrolidin-1-yl)-4-oxo-1,4-dihydro-quinoline-3-carboxylic acid], the half-maximal inhibitory concentration (IC50) was ≤ 1000 nM. Same read-out and setting: the figure for `Nc1ccc(-n2cc(C(=O)O)c(=O)c3cc(F)c(N4CCC[C@@H]4COc4ncccc4Cl)cc32)cn1` [Compound 317, 1-(6-Aminopyridin-3-yl)-7-[(2R)-2-[[(3-chloropyridin-2-yl)oxy]methyl]pyrrolidin-1-yl]-6-fluoro-4-oxoquinoline-3-carboxylic acid] is ≤ 1000 nM; for `CC(=O)N1Cc2ccc(-n3cc(C(=O)O)c(=O)c4cc(Cl)c(N5CCC[C@@H]5COc5ncccc5Cl)cc43)cc2C1` [Compound 237, 1-(2-acetyl-1,3-dihydro-isoindol-5-yl)-6-chloro-7-[(2R)-2-[[(3-chloropyridin-2-yl)oxy]methyl]pyrrolidin-1-yl]-4-oxoquinoline-3-carboxylic acid] it is ≤ 1000 nM.

The assay is the same for the next values; noted with them: Lin28a-dependent Zcchc11 (Z11) TUTase assay; read-out: Potency Lin28a-dep Z11 IC50.
For the molecule `CC1(n2cc(C(=O)O)c(=O)c3cc(F)c(N4CCC[C@@H]4COc4ccccn4)cc32)CCC1` [Example 363, (R)-6-fluoro-1-(1-methylcyclo-butyl)-4-oxo-7-(2-((pyridin-2-yloxy)methyl)pyrrolidin-1-yl)-1,4-dihydro-quinoline-3-carboxylic acid], the IC50 was in the range of 1000 to 10000 nM. Regarding `O=C(O)c1cn(-c2ccnnc2)c2cc(N3CCC[C@@H]3COc3ncccc3Cl)c(Cl)cc2c1=O` [Example 504, 6-chloro-7-[(2R)-2-{[(3-chloropyridin-2-yl)oxy]methyl}pyrrolidin-1-yl]-4-oxo-1-(pyridazin-4-yl)-1,4-dihydroquinoline-3-carboxylic acid], the IC50 is ≤ 1000 nM. On the same count and under the same terms, the result for `O=C(O)c1cn(-c2ccc(C3(O)CNC3)nc2)c2cc(N3CCC[C@@H]3COc3ncccc3Cl)c(Cl)cc2c1=O` [Example 611, (R)-6-chloro-7-(2-(((3-chloropyridin-2-yl)oxy)methyl)pyrrolidin-1-yl)-1-(6-(3-hydroxyazetidin-3-yl)pyridin-3-yl)-4-oxo-1,4-dihydroquinoline-3-carboxylic acid] reads ≤ 1000 nM; that for `O=C(O)c1cn(-c2ccc(O)cc2)c2cc(N3CCC[C@@H]3COc3ccccn3)c(F)cc2c1=O` [Example 382, (R)-6-fluoro-1-(4-hydroxyphenyl)-4-oxo-7-(2-((pyridin-2-yloxy)methyl)pyrrolidin-1-yl)-1,4-dihydroquinoline 3-carboxylic acid], ≤ 1000 nM; that for `Cc1cccnc1OC[C@H]1CCCN1c1cc2c(cc1F)c(=O)c(C(=O)O)cn2C1CC(O)C1` (stereo partly drawn) [Example 362, (R)-6-fluoro-1-(3-hydroxycyclo-butyl)-7-(2-(((3-methylpyridin-2-yl)oxy)methyl)pyrrolidin-1-yl)-4-oxo-1,4-dihydroquinoline-3-carboxylic acid], ≤ 1000 nM. `Cc1nc(N2CC(N(C)C)C2)ccc1-n1cc(C(=O)O)c(=O)c2cc(Cl)c(N3CCC[C@@H]3COc3ncccc3Cl)cc21` [Example 584, (R)-6-chloro-7-(2-(((3-chloropyridin-2-yl)oxy)methyl)pyrrolidin-1-yl)-1-(6-(3-(dimethylamino)azetidin-1-yl)-2-methylpyridin-3-yl)-4-oxo-1,4-dihydroquinoline-3-carboxylic acid]: the IC50 was ≤ 1000 nM. On the same count and under the same terms, the figure for `O=C(O)c1cn(-c2ccncn2)c2cc(N3CCC[C@@H]3COc3ncccc3Cl)c(Cl)cc2c1=O` [Example 541, (R)-6-chloro-7-(2-(((3-chloropyridin-2-yl)oxy)methyl)pyrrolidin-1-yl)-4-oxo-1-(pyrimidin-4-yl)-1,4-dihydroquinoline-3-carboxylic acid] is ≤ 1000 nM; for `O=C(O)c1cn(-c2ccc(CO)cc2)c2cc(N3CCC[C@@H]3COc3ccccn3)c(F)cc2c1=O` [Example 372, (R)-6-fluoro-1-(4-(hydroxymethyl)phenyl)-4-oxo-7-(2-((pyridin-2-yloxy)methyl)pyrrolidin-1-yl)-1,4-dihydroquinoline-3-carboxylic acid] it is ≤ 1000 nM; for `COCc1ccccc1-n1cc(C(=O)O)c(=O)c2cc(F)c(N3CCC[C@@H]3COc3ccccn3)cc21` [Example 407, (R)-6-fluoro-1-(2-(methoxymethyl)phenyl)-4-oxo-7-(2-((pyridin-2-yloxy)methyl)pyrrolidin-1-yl)-1,4-dihydroquinoline-3-carboxylic acid] it is 1000 to 10000 nM. As to `O=C(O)c1cn(-c2cnc(OCc3ccccc3)cn2)c2cc(N3CCC[C@@H]3COc3ncccc3Cl)c(Cl)cc2c1=O` [Example 503, (R)-1-(5-(benzyloxy)pyrazin-2-yl)-6-chloro-7-(2-(((3-chloropyridin-2-yl)oxy)methyl)pyrrolidin-1-yl)-4-oxo-1,4-dihydroquinoline-3-carboxylic acid], the IC50 is 1000 to 10000 nM. Consider `CN1CC(c2ccc(-n3cc(C(=O)O)c(=O)c4cc(Cl)c(N5CCC[C@@H]5COc5ncccc5Cl)cc43)cn2)C1` [Example 626, (R)-6-chloro-7-(2-(((3-chloropyridin-2-yl)oxy)methyl)pyrrolidin-1-yl)-1-(6-(1-methyl-azetidin-3-yl)pyridin-3-yl)-4-oxo-1,4-dihydroquinoline-3-carboxylic acid], for which the IC50 is ≤ 1000 nM.

`O=C(O)c1cn(-c2ncco2)c2cc(N3CCC[C@@H]3COc3ncccc3Cl)c(Cl)cc2c1=O` [Example 485, (R)-6-chloro-7-(2-(((3-chloropyridin-2-yl)oxy)methyl)pyrrolidin-1-yl)-1-(oxazol-2-yl)-4-oxo-1,4-dihydroquinoline-3-carboxylic acid]: the IC50 was ≤ 1000 nM.
